Laboratory results taken from paper PMC261875, “Biochemical Characterization of DNA Damage Checkpoint Complexes: Clamp Loader and Clamp Complexes with Specificity for 5′ Recessed DNA” (PLoS Biology, 2003).

Experiments:
[1] = tested on: T1, RSR (Rad17–Rfc2–Rfc3–Rfc4–Rfc5) complex; experiment: bead pull-down of clamp-clamp loader-DNA ternary complex, Western blot; type: binding; conditions: 1 mM ATPγS, 7 mM MgCl2, pH 7.5, 30 °C; RHR clamp, human RPA, 5' recessed primer-template DNA; nonhydrolyzable ATP analog
T1 construct: untagged

[2] = tested on: T2, RFC (replication factor C); experiment: as above; type: binding; conditions: 1 mM ATPγS, 7 mM MgCl2, pH 7.5, 30 °C; PCNA clamp, human RPA, 3' recessed primer-template DNA; nonhydrolyzable ATP analog
T2 construct: gene RFC1
T2 sequence (P35251 whole entry): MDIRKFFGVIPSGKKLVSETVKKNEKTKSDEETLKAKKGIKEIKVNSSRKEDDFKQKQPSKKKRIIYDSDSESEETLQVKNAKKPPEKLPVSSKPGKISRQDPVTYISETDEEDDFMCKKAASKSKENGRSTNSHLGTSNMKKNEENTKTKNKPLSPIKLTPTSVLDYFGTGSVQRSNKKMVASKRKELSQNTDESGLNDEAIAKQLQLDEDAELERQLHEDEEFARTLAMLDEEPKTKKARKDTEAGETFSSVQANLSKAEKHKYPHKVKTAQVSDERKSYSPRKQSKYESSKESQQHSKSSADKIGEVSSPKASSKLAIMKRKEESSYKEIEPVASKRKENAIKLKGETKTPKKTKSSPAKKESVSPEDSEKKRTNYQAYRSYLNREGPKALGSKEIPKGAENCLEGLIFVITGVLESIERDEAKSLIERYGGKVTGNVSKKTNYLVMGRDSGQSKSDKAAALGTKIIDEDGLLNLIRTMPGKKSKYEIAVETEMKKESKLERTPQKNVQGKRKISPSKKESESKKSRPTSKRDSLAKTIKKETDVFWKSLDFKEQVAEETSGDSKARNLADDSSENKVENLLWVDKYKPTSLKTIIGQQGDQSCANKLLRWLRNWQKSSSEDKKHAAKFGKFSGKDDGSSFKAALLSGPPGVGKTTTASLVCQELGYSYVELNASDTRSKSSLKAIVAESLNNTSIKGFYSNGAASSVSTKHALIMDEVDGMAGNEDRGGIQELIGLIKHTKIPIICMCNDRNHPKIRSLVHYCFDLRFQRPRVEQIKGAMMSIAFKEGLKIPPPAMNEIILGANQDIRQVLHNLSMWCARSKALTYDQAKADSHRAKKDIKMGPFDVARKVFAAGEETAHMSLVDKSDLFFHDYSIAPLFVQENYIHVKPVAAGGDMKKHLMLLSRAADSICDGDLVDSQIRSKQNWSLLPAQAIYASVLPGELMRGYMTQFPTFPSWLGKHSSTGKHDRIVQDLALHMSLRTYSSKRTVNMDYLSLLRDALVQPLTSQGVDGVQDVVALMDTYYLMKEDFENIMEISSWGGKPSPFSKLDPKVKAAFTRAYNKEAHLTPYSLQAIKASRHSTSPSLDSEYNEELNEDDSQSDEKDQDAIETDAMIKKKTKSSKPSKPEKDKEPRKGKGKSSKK
T2 sequence (P35250 whole entry, further chain): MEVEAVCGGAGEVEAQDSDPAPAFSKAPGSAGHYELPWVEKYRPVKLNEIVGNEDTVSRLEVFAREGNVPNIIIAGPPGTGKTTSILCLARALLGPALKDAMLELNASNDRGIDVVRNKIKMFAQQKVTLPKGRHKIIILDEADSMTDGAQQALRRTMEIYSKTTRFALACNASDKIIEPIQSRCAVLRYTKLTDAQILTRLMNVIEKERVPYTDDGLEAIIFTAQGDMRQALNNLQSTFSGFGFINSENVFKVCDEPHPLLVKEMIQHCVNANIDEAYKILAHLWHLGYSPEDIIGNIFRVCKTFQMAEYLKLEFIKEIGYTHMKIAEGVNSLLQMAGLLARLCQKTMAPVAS
T2 sequence (P40938 whole entry, further chain): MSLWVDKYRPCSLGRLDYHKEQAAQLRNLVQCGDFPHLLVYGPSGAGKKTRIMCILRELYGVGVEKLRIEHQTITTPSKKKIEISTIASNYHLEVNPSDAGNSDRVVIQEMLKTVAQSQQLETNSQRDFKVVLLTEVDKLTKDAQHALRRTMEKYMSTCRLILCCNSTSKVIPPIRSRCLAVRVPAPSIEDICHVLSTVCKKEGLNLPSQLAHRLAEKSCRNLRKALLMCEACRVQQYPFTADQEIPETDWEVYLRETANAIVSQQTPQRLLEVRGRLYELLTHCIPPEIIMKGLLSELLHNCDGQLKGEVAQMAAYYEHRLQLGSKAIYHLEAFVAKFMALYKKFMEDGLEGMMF
T2 sequence (P35249 whole entry, further chain): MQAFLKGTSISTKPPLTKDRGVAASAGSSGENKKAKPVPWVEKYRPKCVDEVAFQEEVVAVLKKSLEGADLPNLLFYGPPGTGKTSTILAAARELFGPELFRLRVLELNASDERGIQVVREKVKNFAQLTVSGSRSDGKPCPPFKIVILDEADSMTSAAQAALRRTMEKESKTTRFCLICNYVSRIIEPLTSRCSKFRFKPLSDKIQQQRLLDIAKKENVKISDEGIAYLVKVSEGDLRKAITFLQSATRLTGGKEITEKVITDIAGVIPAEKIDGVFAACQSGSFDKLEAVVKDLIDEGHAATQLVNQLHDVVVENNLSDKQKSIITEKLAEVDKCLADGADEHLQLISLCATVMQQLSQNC
T2 sequence (P40937 whole entry, further chain): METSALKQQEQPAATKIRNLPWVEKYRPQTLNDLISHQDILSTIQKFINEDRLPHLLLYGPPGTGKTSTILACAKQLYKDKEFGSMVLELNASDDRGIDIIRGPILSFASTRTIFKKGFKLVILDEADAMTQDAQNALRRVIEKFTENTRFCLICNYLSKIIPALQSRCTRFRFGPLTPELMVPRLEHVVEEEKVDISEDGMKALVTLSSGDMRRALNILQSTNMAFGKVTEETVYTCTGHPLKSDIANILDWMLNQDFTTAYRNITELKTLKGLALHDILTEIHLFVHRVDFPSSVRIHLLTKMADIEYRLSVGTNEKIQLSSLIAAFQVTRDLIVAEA

T1 sequence (O75943 whole entry): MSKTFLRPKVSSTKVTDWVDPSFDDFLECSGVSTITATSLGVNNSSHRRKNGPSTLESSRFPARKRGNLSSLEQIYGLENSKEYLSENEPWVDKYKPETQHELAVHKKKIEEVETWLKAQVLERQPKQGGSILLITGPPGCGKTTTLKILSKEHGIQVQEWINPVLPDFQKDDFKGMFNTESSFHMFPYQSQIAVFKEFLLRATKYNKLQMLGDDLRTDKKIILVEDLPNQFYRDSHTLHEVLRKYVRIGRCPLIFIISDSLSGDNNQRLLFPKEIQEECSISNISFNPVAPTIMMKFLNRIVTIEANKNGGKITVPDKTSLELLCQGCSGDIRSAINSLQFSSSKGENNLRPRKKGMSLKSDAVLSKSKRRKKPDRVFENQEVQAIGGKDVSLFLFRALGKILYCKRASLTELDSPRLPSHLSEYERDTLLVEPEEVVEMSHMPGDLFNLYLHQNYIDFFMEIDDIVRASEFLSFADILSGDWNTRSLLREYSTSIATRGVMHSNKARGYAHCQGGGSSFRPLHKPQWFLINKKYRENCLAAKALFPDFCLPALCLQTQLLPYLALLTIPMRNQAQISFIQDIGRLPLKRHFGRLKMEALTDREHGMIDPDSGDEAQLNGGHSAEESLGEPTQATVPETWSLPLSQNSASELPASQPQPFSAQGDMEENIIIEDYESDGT
T1 sequence (P35250 whole entry, further chain): as the sequence (P35250 whole entry, further chain) above
T1 sequence (P40938 whole entry, further chain): as the sequence (P40938 whole entry, further chain) above
T1 sequence (P35249 whole entry, further chain): as the sequence (P35249 whole entry, further chain) above
T1 sequence (P40937 whole entry, further chain): as the sequence (P40937 whole entry, further chain) above

Nc1ncnc2c1ncn2[C@@H]1O[C@H](COP(=O)(O)OP(=O)(O)OP(O)(O)=S)[C@@H](O)[C@H]1O [ATPγS, adenosine 5′-O-3′-thiotriphosphate]
bead pull-down of clamp-clamp loader-DNA ternary complex, Western blot [1]: in the presence of ATPγS ternary complex formation, but not clamp loading | bead pull-down of clamp-clamp loader-DNA ternary complex, Western blot [2]: ternary complex formation on both substrates in the presence of ATPγS was observed
